The values that follow come from patent US20140107100A1, “Benzoxazepines as Inhibitors of PI3K/mTOR and Methods of Their Use and Manufacture” (EXELIXIS, INC., priority 2010, published 2014).

pIC50: −log10 of the molar value.

For the assay, the target named is mTOR/GbL/Raptor (mTORC1) (Homo sapiens, UniProt P42345). Description: mTOR/GbL/Raptor (mTORC1) ELISA assay, phosphorylation of 4E-BP1. The class given is biochemical. The note with it: 0.2 nM mTORC1, 40 uM ATP, 50 nM NHis-tagged 4E-BP1, 120 minutes; read-out: IC50 in this assay (mTORC1 ELISA). Summed up:
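Phospho-4E-BP1 was quantified by luminescent ELISA (anti-phospho-4E-BP1 IgG, HRP-tagged secondary) after capture of the His-tagged substrate on Ni-chelate plates.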
(In general: ELISA stands for enzyme-linked immunosorbent assay.)
For orientation: pIC50 means −log10 of the IC50, conventionally taken in molar units. Regarding `COc1ncc(-c2cc(C)c3c(c2)CN(c2nc(N)nc(C)c2C(C)C)CCO3)cn1` [Compound 82, 4-methyl-5-(1-methylethyl)-6-{9-methyl-7-[2-(methyloxy)pyrimidin-5-yl]-2,3-dihydro-1,4-benzoxazepin-4(5H)-yl}pyrimidin-2-amine], the negative-log IC50 (pIC50) was 6.30 to 7.00. In the case of `Cc1cc(-c2ccnc(F)c2)cc2c1OCCN(c1nc(N)nc(C)c1C(C)C)C2` [Compound 83, 4-[7-(2-fluoropyridin-4-yl)-9-methyl-2,3-dihydro-1,4-benzoxazepin-4(5H)-yl]-6-methyl-5-(1-methylethyl)pyrimidin-2-amine], the pIC50 was 6.30 to 7.00. On to `Cc1cc(-c2cnc(N)s2)cc2c1OCCN(c1nc(N)nc(C)c1C(C)C)C2` [Compound 84, 4-[7-(2-amino-1,3-thiazol-5-yl)-9-methyl-2,3-dihydro-1,4-benzoxazepin-4(5H)-yl]-6-methyl-5-(1-methylethyl)pyrimidin-2-amine], for which the pIC50 is no less than 7.00. As for `CCc1nc(CN(C)C)nc(N2CCOc3c(C)cc(-c4cnc5sc(N)nc5c4)cc3C2)c1CC` [Compound 85, 6-(4-{2-[(dimethylamino)methyl]-5,6-diethylpyrimidin-4-yl}-9-methyl-2,3,4,5-tetrahydro-1,4-benzoxazepin-7-yl)[1,3]thiazolo[5,4-b]pyridin-2-amine], the figure is no less than 7.00; as for `Cc1cc(-c2cnc3sc(N)nc3c2)cc2c1OCCN(c1nc(S(C)(=O)=O)nc(C)c1C(C)C)C2` [Compound 86, 6-{9-methyl-4-[6-methyl-5-(1-methylethyl)-2-(methylsulfonyl)pyrimidin-4-yl]-2,3,4,5-tetrahydro-1,4-benzoxazepin-7-yl}[1,3]thiazolo[5,4-b]pyridin-2-amine], no less than 7.00; as for `Cc1cc(-c2cnc3sc(N)nc3c2)cc2c1OCCN(c1ncnc(C)c1C(C)C)C2` [Compound 87, 6-{9-methyl-4-[6-methyl-5-(1-methylethyl)pyrimidin-4-yl]-2,3,4,5-tetrahydro-1,4-benzoxazepin-7-yl}[1,3]thiazolo[5,4-b]pyridin-2-amine], no less than 7.00.

For the compound `CCc1nc(CN(C)C)nc(N2CCOc3c(C)cc(-c4cnc5sc(N)nc5c4)cc3C2)c1C(C)C` [Compound 88, 6-(4-{2-[(dimethylamino)methyl]-6-ethyl-5-(1-methylethyl)pyrimidin-4-yl}-9-methyl-2,3,4,5-tetrahydro-1,4-benzoxazepin-7-yl)[1,3]thiazolo[5,4-b]pyridin-2-amine], the pIC50 was no less than 7.00. In the case of `Cc1cc(-c2cnc3sc(N)nc3c2)cc2c1OCCN(c1nc(CNC(C)(C)C)nc(C)c1C(C)C)C2` [Compound 90, 6-{4-[2-{[(1,1-dimethylethyl)amino]methyl}-6-methyl-5-(1-methylethyl)pyrimidin-4-yl]-9-methyl-2,3,4,5-tetrahydro-1,4-benzoxazepin-7-yl}[1,3]thiazolo[5,4-b]pyridin-2-amine] it was no less than 7.00. On to `Cc1cc(-c2cnc3sc(N)nc3c2)cc2c1OCCN(c1nc(CN3CCC(F)(F)C3)nc(C)c1C(C)C)C2` [Compound 91, 6-(4-{2-[(3,3-difluoropyrrolidin-1-yl)methyl]-6-methyl-5-(1-methylethyl)pyrimidin-4-yl}-9-methyl-2,3,4,5-tetrahydro-1,4-benzoxazepin-7-yl)[1,3]thiazolo[5,4-b]pyridin-2-amine], for which the negative-log IC50 (pIC50) was no less than 7.00. With `Cc1cc(-c2cnc3sc(N)nc3c2)cc2c1OCCN(c1nc(CN3CCCC3)ncc1C(C)C)C2` [Compound 92, 6-{9-methyl-4-[5-(1-methylethyl)-2-(pyrrolidin-1-ylmethyl)pyrimidin-4-yl]-2,3,4,5-tetrahydro-1,4-benzoxazepin-7-yl}[1,3]thiazolo[5,4-b]pyridin-2-amine], the pIC50 was no less than 7.00. `COCc1nc(C)c(C(C)C)c(N2CCOc3c(C)cc(-c4cnc5sc(N)nc5c4)cc3C2)n1` [Compound 93, 6-(9-methyl-4-{6-methyl-5-(1-methylethyl)-2-[(methyloxy)methyl]pyrimidin-4-yl}-2,3,4,5-tetrahydro-1,4-benzoxazepin-7-yl)[1,3]thiazolo[5,4-b]pyridin-2-amine]: the negative-log IC50 (pIC50) is no less than 7.00. On to `Cc1cc(-c2cnc3sc(N)nc3c2)cc2c1OCCN(c1nc(C(O)C(F)(F)F)nc(C)c1C(C)C)C2` (stereo not drawn) [Compound 94, 1-{4-[7-(2-amino[1,3]thiazolo[5,4-b]pyridin-6-yl)-9-methyl-2,3-dihydro-1,4-benzoxazepin-4(5H)-yl]-6-methyl-5-(1-methylethyl)pyrimidin-2-yl}-2,2,2-trifluoroethanol], for which the pIC50 is no less than 7.00. In the case of `Cc1cc(-c2cnc3sc(N)nc3c2)cc2c1OCCN(c1nc(C(C)O)nc(C)c1C(C)C)C2` (stereo not drawn) [Compound 98, 1-{4-[7-(2-amino[1,3]thiazolo[5,4-b]pyridin-6-yl)-9-methyl-2,3-dihydro-1,4-benzoxazepin-4(5H)-yl]-6-methyl-5-(1-methylethyl)pyrimidin-2-yl}ethanol] it was no less than 7.00; in that of `Cc1cc(-c2cnc3sc(N)nc3c2)cc2c1OCCN(c1nc([S+](C)[O-])nc(C)c1C(C)C)C2` (stereo not drawn) [Compound 99, 6-{9-methyl-4-[6-methyl-5-(1-methylethyl)-2-(methylsulfinyl)pyrimidin-4-yl]-2,3,4,5-tetrahydro-1,4-benzoxazepin-7-yl}[1,3]thiazolo[5,4-b]pyridin-2-amine], no less than 7.00; in that of `Cc1cc(-c2cnc3sc(N)nc3c2)cc2c1OCCN(c1nc(CN(C)C(C)(C)C)nc(C)c1C(C)C)C2` [Compound 100, 6-{4-[2-{[(1,1-dimethylethyl)(methyl)amino]methyl}-6-methyl-5-(1-methylethyl)pyrimidin-4-yl]-9-methyl-2,3,4,5-tetrahydro-1,4-benzoxazepin-7-yl}[1,3]thiazolo[5,4-b]pyridin-2-amine], 6.30 to 7.00. Take `Cc1cc(-c2cnc3sc(N)nc3c2)cc2c1OCCN(c1nc(CNCC(F)(F)F)nc(C)c1C(C)C)C2` [Compound 103, 6-{9-methyl-4-[6-methyl-5-(1-methylethyl)-2-{[(2,2,2-trifluoroethyl)amino]methyl}pyrimidin-4-yl]-2,3,4,5-tetrahydro-1,4-benzoxazepin-7-yl}[1,3]thiazolo[5,4-b]pyridin-2-amine]: the negative-log IC50 (pIC50) is 6.30 to 7.00. With `Cc1nc(C)c(C(C)C)c(N2CCOc3c(C)cc(-c4cnc5sc(N)nc5c4)cc3C2)n1` [Compound 104, 6-{4-[2,6-dimethyl-5-(1-methylethyl)pyrimidin-4-yl]-9-methyl-2,3,4,5-tetrahydro-1,4-benzoxazepin-7-yl}[1,3]thiazolo[5,4-b]pyridin-2-amine], the negative logarithm of the IC50 (pIC50) is no less than 7.00. Consider `Cc1cc(-c2cnc3sc(N)nc3c2)cc2c1OCCN(c1nc(CC#N)nc(C)c1C(C)C)C2` [Compound 105, {4-[7-(2-amino[1,3]thiazolo[5,4-b]pyridin-6-yl)-9-methyl-2,3-dihydro-1,4-benzoxazepin-4(5H)-yl]-6-methyl-5-(1-methylethyl)pyrimidin-2-yl}acetonitrile], for which the negative-log IC50 (pIC50) was no less than 7.00.

For the compound `CC(=O)Nc1ncc(-c2cc(C)c3c(c2)CN(c2nc(N)nc(C)c2C(C)C)CCO3)s1` [Compound 106, N-(5-{4-[2-amino-6-methyl-5-(1-methylethyl)pyrimidin-4-yl]-9-methyl-2,3,4,5-tetrahydro-1,4-benzoxazepin-7-yl}-1,3-thiazol-2-yl)acetamide], the pIC50 is no less than 7.00.

Take `Cc1ncc(C(C)C)c(N2CCOc3c(C)cc(-c4cnc5sc(N)nc5c4)cc3C2)n1` [Compound 107, 6-{9-methyl-4-[2-methyl-5-(1-methylethyl)pyrimidin-4-yl]-2,3,4,5-tetrahyro-1,4-benzoxazepin-7-yl}[1,3]thiazolo[5,4-b]pyridin-2-amine]: the pIC50 is no less than 7.00.

Turning to `Cc1cc(-c2cnc3sc(N)nc3c2)cc2c1OCCN(c1ncnc(Cl)c1C(C)C)C2` [Compound 108, 6-{4-[6-chloro-5-(1-methylethyl)pyrimidin-4-yl]-9-methyl-2,3,4,5-tetrahydro-1,4-benzoxazepin-7-yl}[1,3]thiazolo[5,4-b]pyridin-2-amine], the pIC50 was no less than 7.00. With `CCn1cc(-c2cc(C)c3c(c2)CN(c2nc(N)nc(C)c2C(C)C)CCO3)cn1` [Compound 111, 4-[7-(1-ethyl-1H-pyrazol-4-yl)-9-methyl-2,3-dihydro-1,4-benzoxazepin-4(5H)-yl]-6-methyl-5-(1-methylethyl)pyrimidin-2-amine], the pIC50 is 6.30 to 7.00.

With `CNc1nc(-c2cc(C)c3c(c2)CN(c2nc(N)nc(C)c2C(C)C)CCO3)cs1` [Compound 112, 4-methyl-5-(1-methylethyl)-6-{9-methyl-7-[2-(methylamino)-1,3-thiazol-4-yl]-2,3-dihydro-1,4-benzoxazepin-4(5H)-yl}pyrimidin-2-amine], the negative-log IC50 (pIC50) is 6.30 to 7.00. In the case of `CCNC(=O)c1nc(C)c(C(C)C)c(N2CCOc3c(C)cc(-c4cnc5sc(N)nc5c4)cc3C2)n1` [Compound 113, 4-[7-(2-amino[1,3]thiazolo[5,4-b]pyridin-6-yl)-9-methyl-2,3-dihydro-1,4-benzoxazepin-4(5H)-yl]-N-ethyl-6-methyl-5-(1-methylethyl)pyrimidine-2-carboxamide], the negative-log IC50 (pIC50) was no less than 7.00. On to `CSc1nc(Cl)c(C(C)(C)O)c(N2CCOc3c(C)cc(-c4cnc5sc(N)nc5c4)cc3C2)n1` [Compound 114, 2-{4-[7-(2-amino[1,3]thiazolo[5,4-b]pyridin-6-yl)-9-methyl-2,3-dihydro-1,4-benzoxazepin-4(5H)-yl]-6-chloro-2-(methylthio)pyrimidin-5-yl}propan-2-ol], for which the negative-log IC50 (pIC50) is 6.30 to 7.00.

With `C=Cc1c(C)ncnc1N1CCOc2c(C)cc(-c3cnc4sc(N)nc4c3)cc2C1` [Compound 115, 6-[4-(5-ethenyl-6-methylpyrimidin-4-yl)-9-methyl-2,3,4,5-tetrahydro-1,4-benzoxazepin-7-yl][1,3]thiazolo[5,4-b]pyridin-2-amine], the pIC50 was no less than 7.00. As for `Cc1cc(-c2cnc3sc(N)nc3c2)cc2c1OCCN(c1ncncc1C(C)C)C2` [Compound 116, 6-{9-methyl-4-[5-(1-methylethyl)pyrimidin-4-yl]-2,3,4,5-tetrahydro-1,4-benzoxazepin-7-yl}[1,3]thiazolo[5,4-b]pyridin-2-amine], the figure is no less than 7.00.
